These results are taken from PubChem BioAssay AID179 (DTP/NCI, 2004).

What is called pEC50 is the EC50 on a negative log10 scale, so that one unit is a factor of ten. The pIC50 is −log10 of the IC50, conventionally taken in molar units. Low readings indicate a high IC50, high ones a low IC50.

The assay has as its system CEM cells HIV-1 protection, formazan growth assay. Description: NCI AIDS Antiviral Assay. The following applies: for pIC50: measured here: growth of uninfected CEM cells. Summed up:
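Steps: treat uninfected and HIV-1-infected human CEM cells at five drug levels; quantify growth by soluble formazan; retest any compound reaching 50% protection; classify actives from the retest.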

The structures appear in SMILES notation. pEC50, pIC50: −log10 of the molar value. Where “and” joins values, the source holds several entries; their conditions need not be identical. Equal values may be shown once. Calls of active or inactive are those of the source.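 The calls were made as follows: active = compounds giving half or more protection of infected cells from virus-caused growth loss, again on retest; inactive = the rest.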

Consider `COC1=CC(=O)C(OC)=C(C2C(=O)N(C)c3ccccc32)C1=O` (stereo not drawn), for which the pEC50 is less than 3.70 and the pIC50 was 4.21. The corresponding values for `O=C1NC(=O)/C(=C\c2cccc([N+](=O)[O-])c2)N1` are less than 3.70 and 3.80. On to `Cc1nc2cc3c(cc2n2cccc12)oc1ccccc13`, for which the pEC50 was less than 4.35 and the pIC50 was 4.45. The corresponding values for `CCCCCC(=O)Cc1cc(OC)cc2c1C(=O)Oc1cc(O)c(C(=O)O)c(CC(=O)CCCCC)c1O2` are less than 3.47 and 3.95. `CN(C)C1C(=O)C(C(N)=O)=C(O)C2(O)C(=O)C3=C(O)c4c(O)cccc4C(C)(O)C3CC12` (stereo not drawn): the pEC50 is less than 3.25; the pIC50 was 4.39 and 4.97. Consider `O=c1oc(=O)c2cc3c(=O)oc(=O)c3cc12`, for which the pEC50 was less than 3.70 and the pIC50 was less than 3.70.

Regarding `CCCC(Cc1ccccc1)N1CCCC1` (stereo not drawn), the pEC50 was less than 3.70 and the pIC50 was less than 3.70. On to `CCN(CC)Cc1c(C(=O)NCCO)[n+](=O)c2ccccc2n1[O-]`, for which the pEC50 was less than 3.75 and the pIC50 was less than 3.75. In the case of `COc1cccc(C2NC(=S)N3C(c4cccc(OC)c4)NC(=S)N23)c1` (stereo not drawn), the result was inactive.

As for `CC(=O)/C(=C/N1C(=O)CC(=O)NC1=S)C(=O)Nc1ccccc1`, the pEC50 is less than 3.70 and the pIC50 was less than 3.70. With `COc1ccccc1C=NC12CC3CC(CC(C3)C1)C2`, the pEC50 is less than 3.88 and the pIC50 is 3.96.

On to `Cc1ccc(S(=O)(=O)c2c3[nH]c4ccccc4nc3n3c2nc2ccccc23)cc1`, for which the pEC50 was less than 3.92 and the pIC50 is less than 3.92. As for `CCCCCCCn1ccnc1NCCCCCCCCCCNc1nccn1CCCCCCC`, the pEC50 was less than 4.43 and the pIC50 is 5.00. The corresponding values for `CCOC(=O)CCCN(c1[nH]c(C)c(C)c1C#N)S(=O)(=O)c1ccc(C)cc1` are less than 3.70 and 4.09. `COC(=O)[C@]12CSC[C@H]1C[C@H](c1cccc3ccccc13)N2`: the pEC50 is less than 3.70 and the pIC50 is less than 3.70. For `O=c1c2ccccc2sc2nc(CCl)nn12`, the pEC50 is less than 3.45 and the pIC50 is 4.24. The corresponding values for `COc1ccc(CCNC(=O)CCc2ccccc2CO)cc1OC` are less than 3.70 and less than 3.70. For the molecule `CC(=O)C1CCN(Cc2ccccc2)C1` (stereo not drawn), the outcome was inactive. `C[C@]12CC[C@H](O)CC1=CC[C@@H]1C2CC[C@@]2(C)C1CC[C@@H]2c1nc(-c2ccccc2)cs1` (stereo partly drawn): the pEC50 was less than 4.81 and the pIC50 was less than 4.81.

As for `COc1ccc(NS(=O)(=O)c2ccc(NC(NC(=O)CC(C)C)(C(F)(F)F)C(F)(F)F)cc2)nn1`, the pEC50 is less than 3.70 and the pIC50 was 3.72. For `N#C/C(c1nc2ccccc2[nH]1)=c1\s/c(=C(/N)O)c(=N)n1-c1ccccc1` the same measures were less than 4.86 and less than 4.86. In the case of `COc1ccc(/C=C(\C#N)c2ccc(OC)c(OC)c2)cc1`, the pEC50 is less than 5.70 and the pIC50 is 6.59. The corresponding values for `FC(F)(F)c1ccc(N=NN2CCCC2)cc1` are less than 3.70 and 4.64.

Consider `COc1cc(Nc2nc3cc(C(F)(F)F)ccc3nc2-c2ccccc2)cc(OC)c1OC`, for which the pEC50 was less than 4.38 and the pIC50 is less than 4.38. As for `O=Cc1ccc2c(c1)CC1(Cc3ccccc3C1)C2`, the pEC50 is less than 3.70 and the pIC50 was 4.47.

For `CN1CCCNCCN(CCc2ccccn2)CCCN(C)CC1`, the pEC50 was less than 3.88 and the pIC50 is less than 3.88.

Take `c1ccc(SC2(Sc3ccccc3)CCCC2)cc1`: the outcome was inactive.

As for `O=C(SC1=NCCS1)SC1=NCCS1`, the result was inactive. For `COc1cc(CNC(=O)CCCCCCCC/C=C/Br)ccc1O`, the pEC50 is less than 3.70 and the pIC50 is 4.67. `CC(=O)C(CCC(=O)O)(CCC(=O)O)C(C)C`: the pEC50 was less than 2.99 and the pIC50 was less than 2.99.

Consider `O=C(CSC(=S)N1CCOCC1)Nc1nc2c(s1)CCCC2`, for which the pEC50 was less than 4.14 and the pIC50 is 4.21.

For `CSc1nc2c(c(=O)[nH]1)N=C(c1ccc([N+](=O)[O-])cc1)CC(c1ccccc1)N2` (stereo not drawn), the result was inactive. In the case of `CCO[C@@H]1N(C2CC(N=[N+]=[N-])C(CO)O2)C(=O)NC(=O)[C@@]1(C)Cl` (stereo partly drawn), the pEC50 is less than 3.70 and the pIC50 was less than 3.70. With `CCCN(CCC)c1nc2ccc(NC(=O)OCC)cc2s1`, the pEC50 was less than 4.37 and the negative logarithm of the IC50 (pIC50) was 4.49. `CN(C)c1ccc(/C=C\C#N)cc1`: the pEC50 was less than 4.01 and the pIC50 is less than 4.01. Regarding `O=c1oc2ccccc2c2nc3cc(Cl)c(F)cc3cc12`, the pEC50 is less than 4.60 and the pIC50 was less than 4.60. For the molecule `O=C(CNc1ccc(Cl)cc1)Nn1c(-c2ccccc2)nc2ccccc2c1=O`, the pEC50 was less than 3.70 and the pIC50 is 5.29.

With `CCC(Oc1c2ccoc2c(OC)c2oc(=O)cc(O)c12)C(=O)O` (stereo not drawn), the pEC50 is less than 3.57 and the pIC50 is less than 3.57.

As for `CCn1cc(C(=O)O)c(=O)c2cccc(OC)c21`, the result was inactive. Turning to `COc1c(Cl)cc(C(=CCN[C@@H]2CC[C@@]3(C)[C@@H](CC[C@@H]4[C@@H]3CC[C@]3(C)[C@@H]([C@H](C)CCCC(C)C)CC[C@@H]43)C2)c2cc(Cl)c(OC)c(C(=O)O)c2)cc1C(=O)O`, the pEC50 is less than 4.00 and the pIC50 is 4.21.

On to `O=S(=O)(O)ON=C1c2ccccc2-c2ccccc21`, for which the pEC50 was less than 3.70 and the pIC50 is 3.71.

As to `O=C(NCCC[P+](c1ccccc1)(c1ccccc1)c1ccccc1)OCc1ccccc1`, the pEC50 was less than 3.70 and the pIC50 was 5.80. Consider `C(/C=N/NC1=NCCN1)=N\NC1=NCCN1`, for which the pEC50 is less than 3.70 and the pIC50 is less than 3.70. With `Cn1c(NN)nc2ccccc2c1=O`, the outcome was inactive.

Take `O=S(=O)(c1ccccc1)c1ccccn1`: the pEC50 was 4.12 and the pIC50 was 3.39. Turning to `CNC(=O)Oc1ccc(Cl)cc1SSc1cc(Cl)ccc1OC(=O)NC`, the pEC50 was less than 3.70 and the pIC50 is 5.08. The corresponding values for `C=C1C(=O)OC2/C=C(/CO)C3(O)CC(O)C(C)(CC(OC(=O)/C(C)=C/C)C12)O3` (stereo not drawn) are less than 3.20 and 5.93. For `CCOC(=O)C(CCN1CCC2(CC1)C(=O)N(C)CN2c1ccccc1)C(=O)OCC` the same measures were less than 3.70 and less than 3.70.

For `COc1cc(C(c2ccccc2)N2C(=O)CC[C@H]2C(=O)O)cc(OC)c1OC` (stereo partly drawn), the pEC50 was less than 3.70 and the pIC50 was less than 3.70.

For the molecule `NC(=S)N/N=C1\NC(=O)/C(=C/c2ccc3c(c2)OCO3)S1`, the pEC50 is less than 3.70 and the pIC50 is 3.80. For the molecule `C=C=C(CC)C(C(=O)OC)N(CC)CC` (stereo not drawn), the result was inactive.

As for `COC(OC)[C@@H]1OC[C@H](n2cnc3c(N)ncnc32)[C@H]1O`, the pEC50 is less than 3.70 and the pIC50 is less than 3.70. Take `CCCCC1(N=[N+]=[N-])C(=O)c2cccc3c2N(CCC3)C1=O` (stereo not drawn): the pEC50 is less than 3.70 and the pIC50 is less than 3.70.

For the molecule `C/C(=N/OC(=O)N(C)C)c1ccc(Cl)c(Cl)c1`, the pEC50 was less than 3.70 and the negative logarithm of the IC50 (pIC50) was 3.99. Regarding `O=C(O)c1cc(Cc2ccc(O)c(C(=O)O)c2)ccc1O`, the negative-log EC50 (pEC50) is 3.25, the result was active and the pIC50 was 3.06. Turning to `CCCCCCCCCCCCCCCCCC(=O)NCC(COP(=O)([O-])OCC[N+](C)(C)C)OC` (stereo not drawn), the outcome was inactive.

As for `Nc1ccccc1C(=O)NNC(=O)c1ccccc1O`, the pEC50 was less than 3.70 and the pIC50 was 4.78. As to `COc1nc2[nH]c(C)cc(=O)c2c2ccccc12`, the pEC50 is less than 3.70 and the negative-log IC50 (pIC50) is less than 3.70.

Consider `O=c1cc(-c2ccc(O)cc2)oc2cc(O[C@@H]3O[C@H](CO)[C@@H](O)[C@H](O)[C@H]3O)cc(O)c12`, for which the pEC50 is less than 3.70 and the pIC50 was 5.34. For `O=C1/C(=C/c2ccc(F)cc2)CNC/C1=C\c1ccc(F)cc1` the same measures were less than 4.82 and 6.54. For `CC(C)(C)[Si](C)(C)OCC1OC(n2ccc(=O)[nH]c2=O)C(O[Si](C)(C)C(C)(C)C)/C1=C/CO` (stereo not drawn) the same measures were less than 3.70 and 5.08. For `CCOC(OCC)c1ccc(-n2c(N)c(C#N)cnc2=S)c2c1OC2=NC=C(C#N)C#N` the same measures were less than 3.82 and less than 3.82. For `CC(C)=C/C=C1/CS(=O)(=O)C=C1C`, the pEC50 was less than 3.70 and the pIC50 is 3.87.

On to `N#Cc1nc(Nc2ccc(Cl)cc2)sc1N`, for which the pEC50 is less than 3.28 and the pIC50 is 5.01. For `CC(C)(C)OP(O)(=S)OC(C)(C)C` the same measures were less than 3.70 and less than 3.70. The corresponding values for `COc1cccc(-c2[nH]c3cc4c(cc3c(=O)c2C(=O)O)OCO4)c1` are less than 3.70 and 4.86. The corresponding values for `CN1CC(C)(C)C(O)c2ccccc21` (stereo not drawn) are less than 3.02 and 3.28. `CC(=O)OC1=C(C)S(=O)(=O)c2ccccc21`: the pEC50 was less than 3.70 and the pIC50 is less than 3.70. Regarding `O=[N+]([O-])/C=C/c1ccc(O)cc1`, the result was inactive.

In the case of `CCN(CC)c1ccc(N=Nc2ccc([N+](=O)[O-])cc2OC(=O)/C=C/c2ccccc2)c(OC(=O)/C=C/c2ccccc2)c1`, the pEC50 is less than 5.34 and the pIC50 is 6.07. The corresponding values for `O=S(=O)(SC1=NCCN1)c1ccccc1` are 3.98 and 3.52. For `COc1ccc([N+](=O)[O-])cc1NC(=O)c1ccc2c(c1)C(=O)OC2=O`, the pEC50 was 4.53 and the pIC50 was 4.19. For `O=c1c2cc([N+](=O)[O-])cnc2sn1-c1ccc(Br)cc1` the same measures were less than 3.70 and 4.20. As to `O=C1C2C(C(=O)N1c1ccccc1)C1c3ccccc3C2C2C(=O)N(c3ccccc3)C(=O)C21` (stereo not drawn), the result was inactive.
